Reference: US20220280587A1, “MEDICAL GELS CONTAINING A QUATERNARY AMMONIUM COMPOUND, PHENOXYETHANOL, ALOE VERA JUICE, AND NATURAL SPORICIDAL MOISTURIZERS” (priority 2021, published 2022)
Values after ≈ are worked out from the molar mass of the structure shown.

Tests used:
Format in all cases: cell-based
C. botulinum spores = test: microbe, parasite or virus in culture; conditions: for MIC / MBC: Clostridium botulinum; for MIC: read-out: Sporostatic MIC (mM); for MBC: read-out: Sporicidal MIC (mM)
P. digitatum = test: Antifungal combination of potassium sorbate and vanillin (MIC, FIC isobologram); conditions: Penicillium digitatum
P. glabrum = test: as above
P. italicum = test: as above; conditions: Penicillium italicum
Pseudomonas aeruginosa = test: Bactericidal / inhibitory concentration against Pseudomonas aeruginosa

CC=O [Acetaldehyde]
MIC (C. botulinum spores): 0.78 mM (≈ 34.4 µg/mL)

O=Cc1ccccc1 [Benzaldehyde]
MIC (C. botulinum spores): 0.6 mM (≈ 63.7 µg/mL)

O=CC=Cc1ccccc1 [Cinnamaldehyde]
MIC (C. botulinum spores): 0.78 mM (≈ 103 µg/mL)

CCCCCCC=O [Hepaldehyde]
Sporicidal MIC (C. botulinum spores): >2500 mM
Sporostatic MIC (C. botulinum spores): 0.60 mM

CC(C)C=O [Isobutyraldehyde]
MBC (C. botulinum spores): 39 mM (≈ 2810 µg/mL)
MIC (C. botulinum spores): 0.6 mM (≈ 43.3 µg/mL)

O=CCc1ccccc1 [Phenylacetaldehyde]
MIC (C. botulinum spores): 0.6 mM (≈ 72.1 µg/mL)

O=CC(=O)c1ccccc1 [Phenylglyoxal]
MIC (C. botulinum spores): 0.6 mM (≈ 80.5 µg/mL)

O=Cc1ccc2c(c1)OCO2 [Piperonal]
MIC (C. botulinum spores): 0.6 mM (≈ 90.1 µg/mL)

CC(=O)C=O [Pyruvaldehyde]
Sporicidal MIC (C. botulinum spores): 156 mM
Sporostatic MIC (C. botulinum spores): 2.44 mM

CCCCC=O [Valeraldehyde]
MIC (C. botulinum spores): 2.44 mM (≈ 210 µg/mL)

COc1cc(C=O)ccc1O [Vanillin]
MIC (P. digitatum; potassium sorbate 0 PPM): 1100 µg/mL
MIC (P. digitatum; potassium sorbate 50 PPM): 300 µg/mL
MIC (P. digitatum; potassium sorbate 100 PPM): 100 µg/mL
MIC (P. glabrum; potassium sorbate 0 PPM): 1200 µg/mL
MIC (P. glabrum; potassium sorbate 100 PPM): 1100 µg/mL
MIC (P. glabrum; potassium sorbate 300 PPM): 500 µg/mL
MIC (P. glabrum; potassium sorbate 500 PPM): 100 µg/mL
MIC (P. italicum; potassium sorbate 0 PPM): 1100 µg/mL
MIC (P. italicum; potassium sorbate 100 PPM): 300 µg/mL
MIC (P. italicum; potassium sorbate 150 PPM): 100 µg/mL
MBC (C. botulinum spores): 1.25 mM (≈ 190 µg/mL)
MIC (C. botulinum spores): 0.6 mM (≈ 91.3 µg/mL)

CCCCCC(C=O)=Cc1ccccc1 [α-Amylcinnamaldehyde]
MIC (C. botulinum spores): 0.6 mM (≈ 121 µg/mL)

benzalkonium chloride
Concentration that kills Pseudomonas aeruginosa (Pseudomonas aeruginosa; benzalkonium chloride alone): 0.13%
Concentration that kills Pseudomonas aeruginosa (Pseudomonas aeruginosa; when aloe vera juice is present at 10%): 0.10%
